# From PubChem BioAssay AID179 (DTP/NCI, 2004)
# pEC50, pIC50: −log10 of the molar value. Where “and” joins values, the source holds several entries; their conditions need not be identical. Equal values may be shown once. Calls of active or inactive are those of the source.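 The calls were made as follows: active = compounds giving half or more protection of infected cells from virus-caused growth loss, again on retest; inactive = the rest.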 Where a SMILES comes first, the peptide text is derived from it. [ ]: non-standard residue; d: D form. ΔPro = O=C(O)[CH]1C=CCN1
# Test system: CEM cells HIV-1 protection, formazan growth assay
# Test: NCI AIDS Antiviral Assay
# Details: for pIC50: measured here: growth of uninfected CEM cells
# Summary of the method: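 Category rules: moderately active means at least 50% protection on retest, and confirmed active means 100% protection reproducibly. The underlying data came from a formazan growth assay in HIV-1-infected CEM cells.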
SMILES,pEC50,pIC50,outcome
CCC1CC2CN3CCc4c([nH]c5c(-c6c(OC)ccc7c8c([nH]c67)[C@]6(C(=O)OC)CC7CC(CC)C6N(CC8)C7)c(O)ccc45)[C@](C(=O)OC)(C2)C13 (some centres not stated),< 3.70,4.89,
O=S(=O)(O)c1ccc(O)c(N=Nc2ccc(/C=C/c3ccc(N=Nc4cc(S(=O)(=O)O)ccc4O)cc3S(=O)(=O)O)c(S(=O)(=O)O)c2)c1,< 3.70,3.90,
N#CCOc1ccc(/C=C/C(=O)c2ccc(Cl)cc2)cc1,< 3.70,4.76,
CC(C)(C)OC(=O)C1=C2C=C(O)C=CC2(C)N(Cc2ccccc2)C1=N (configuration not stated),< 5.70,6.13,
CCSC1=N/C(=C\c2ccco2)C(NN)=N1,< 4.30,< 4.30,
CC(C)CCC[C@@H](C)C1CCC2[C@@H]3CC=C4C[C@@H](OS(=O)(=O)O)CC[C@]4(C)C3CC[C@@]21C (some centres not stated),,,active
Cc1ccc(/C=N/NS(=O)(=O)c2ccccc2)cc1,,,inactive
CCC12CCC[C@@]13C=C[C@H](O3)C(C)(C)C2=O (some centres not stated),,,inactive
COc1ccc(C2=NN(c3nsc4ccccc34)C(=O)CC2)cc1,< 4.39,< 4.39,
O=[N+]([O-])c1c(Cl)ccc2nsnc12,< 3.50,5.69,
COC(=O)C(Cc1cn(C(C)n2cc(CC(NC(C)=O)C(=O)OC)c3ccccc32)c2ccccc12)NC(C)=O (configuration not stated),< 4.09,4.13,
O=c1nc2n(c3nsnc13)CCO2,< 3.88,< 3.88,
S=c1nc(COc2ccc(Cl)cc2)[nH][nH]1,< 2.99,< 2.99,
N=c1c2ccccc2nc2oc3cc([N+](=O)[O-])ccc3n12,< 3.71,3.86,
CCO/C(O)=c1/s/c(=C(\C#N)c2nc3ccccc3[nH]2)n(-c2ccccc2)c1=N,< 4.75,4.82,
Cc1cc(C)c2c(c1)CSCc1cc(C)cc(C)c1-2,,,inactive
CC(=O)c1c(-c2ccc(Cl)cc2)c(C#N)c(=S)n(C2OC(CO)C(O)C(O)C2O)c1-c1ccccc1 (configuration not stated),< 3.70,4.55 and 4.85,
O=c1c(Nc2ccccc2)cn(CCOc2ccc(Cl)cc2)c(=O)n1CCOc1ccc(Cl)cc1,< 3.70,3.84,
Cc1cccc2oc3c(c(=O)c12)CC(O)C(C)(C)O3 (configuration not stated),< 3.70,4.10,
CC(=O)NC1COC(COC(=O)CCCCCCCCCCNC(=O)c2ccc([N+](=O)[O-])c3c(=O)c4ccccc4[nH]c23)C(O)C1OC(C)C(=O)NC(C(=O)NC(CCC(N)=O)C(=O)OCc1ccccc1)C(C)C (configuration not stated),< 5.02,< 5.02,
Nc1ccc(C(=O)Nc2ccccc2N)cc1,< 2.96,5.42,

SMILES,pEC50,pIC50,outcome
CC(C)(CCCCC(C)(C)C1NC(=O)N1)C1NC(=O)N1,< 3.70,< 3.70,
c1ccc(SC2CC[C@H]3CCCC[C@H]3O2)cc1 (some centres not stated),,,inactive
O=C(O)C1C=CCN1C(=O)C1C=CCN1C(=O)C1C=CCN1 (configuration not stated) (H-[ΔPro]-[ΔPro]-[ΔPro]-OH; configuration not given here),< 3.70,3.78,
COC(=O)/C=C/C(=O)/C=C/COC(=O)c1ccccc1,< 4.02,4.21,
Oc1ccccc1/C=C/c1csnn1,< 3.75,< 3.75,
CC1(C)OC(=O)C(=Cc2ccccc2F)C(=O)O1,< 3.42,4.15,
CC(C)=CCc1c(-c2ccc(OC3OC(CO)C(O)C(O)C3O)cc2O)oc2c3c(cc(O)c2c1=O)OC(C)(C)C=C3 (configuration not stated),< 4.94,< 4.94,
COC(=O)C(CCC#N)(CCC#N)C(=O)OC,< 4.66,< 4.66,
COc1ccc(Nc2cc(=O)[nH]c(=O)[nH]2)cc1,< 3.70,< 3.70,
COc1cc2c(cc1O)C(CSC)Cc1cc(OC)c(OC)cc1N(C)CCC2 (configuration not stated),< 3.70,4.41,
CCSc1c(S)cnn(C)c1=O,4.63,4.51,
CCOC(=O)c1cccn1S(=O)(=O)c1cc(Cl)ccc1NC(=O)CC,5.21,3.71,
CN(C)c1nc(N(C)C)nc(N(C)C)n1,< 4.46,4.58,
c1ccc2c(c1)oc1cc3c(cc12)ncc1cccn13,< 3.70,< 3.70,
Cc1cn(C2CC(N)C(C(=O)NCC(=O)O)O2)c(=O)[nH]c1=O (configuration not stated),< 3.70,< 3.70,
C/C(=N\O)c1ccc(OCc2cc(C(F)(F)F)cc(C(F)(F)F)c2)cc1,< 3.70,4.39,
N=C(N)SCc1ccc2c(c1)S(=O)(=O)c1ccccc1O2,< 3.70,4.88,
OCC1(CO)CC2C3C=CC(C3)C2C1 (configuration not stated),< 3.64,< 3.64,
O=C(O)c1n[nH]nc1Cl,< 3.70,< 3.70,
C=CC1(C)CC(=O)C2(O)C(C)(O1)C(OC(C)=O)C(O)C1C(C)(C)CCC(O)C12C (configuration not stated),,,inactive
COc1cc(/C=N/NC(=O)CC(=O)N(C(=O)c2ccc(Cl)cc2)c2ccc(C)cc2)ccc1O,< 3.71,< 3.71,

SMILES,pEC50,pIC50,outcome
O=c1c(SCc2ccccc2F)c(SCc2ccccc2F)cnn1-c1ccccc1,< 4.94,5.31,
CN(N=O)C(=O)ON1C(=O)CCC1=O,< 2.91,3.97,
CCOc1ccc(NC(=S)NC=C(C(N)=O)C(N)=O)cc1,< 3.70,< 3.70,
COc1ccc2c(c1O)C13CCN(C)C(C2)C1CCC1(C3)OCCO1 (configuration not stated),< 3.42,3.69,
O=C(N/C(=C\c1ccc(Br)cc1)c1nc2ccccc2[nH]1)c1ccccc1,< 4.21,4.47,
C=CCN1C(=O)CS/C1=N\NC(=O)Cc1nc2ccccc2[nH]1,< 3.56,< 3.56,
O=C1CC2C(=O)N(Cc3ccccc3)C1C=C2S(=O)(=O)c1ccccc1 (configuration not stated),,,inactive
Cc1cccc(N=C2NC(=O)C(CC(=O)Nc3cccc(C)c3C)S2)c1 (configuration not stated),< 4.15,< 4.15,
Cc1cccc2c1[nH]c1[nH]c(=O)[nH]c(=O)c12,< 3.70,3.82,
O=C1/C(=C/c2cccc(Br)c2)CSC/C1=C\c1cccc(Br)c1,< 3.70,5.54,
COc1ccccc1N=Nc1c(S(=O)(=O)O)cc2cc(NC(=O)Nc3ccc4c(O)c(N=Nc5ccc(S(=O)(=O)O)cc5C)c(S(=O)(=O)O)cc4c3)ccc2c1O,,,active
O=[N+]([O-])/C(C(Cl)=C(Cl)Cl)=C1\NCCS1,< 3.70,< 4.00,
CC1=C(C(=O)Nc2ccccc2C)C(c2ccc([N+](=O)[O-])cc2)C(C(=O)Nc2ccccc2C)=C(C)N1,< 4.98,< 4.98,
COC(=O)/C(=N\NC(=O)C[N+](C)(C)C)C(C(=O)OC)C(=O)C(=O)Nc1ccccc1C(N)=O (configuration not stated),< 3.30,< 3.30,
CSC(=S)c1ccc(C(=S)SC)cc1,,,inactive
CO/C(=N\N=C\c1ccccc1F)c1ccncc1,< 3.85,< 3.85,
CN(C)CCNc1nc2c(no[n+]2[O-])c2ccccc12,< 3.70,5.03,
O=c1c2ccc(Cl)cc2oc2ccc(Cl)cc12,< 4.57,< 4.57,
COC(=O)CC1NC(=O)[C@@H]1C(C)O (some centres not stated),< 3.60,< 3.60,
Cc1ccc(S(=O)(=O)N2CCN(S(=O)(=O)c3ccc(C)cc3)Cc3ccccc3C2)cc1,< 3.70,< 3.70,
CCN(CC)Cc1nc2sc3c(c2c(=O)n1-c1ccccc1)CCCC3,< 3.70,4.40,
